Test systems include 786-0; A549; ACHN; CAKI-1; HCC 2998; HCT-116; HCT-15; HL-60; IGROV-1; K562; M14; OVCAR-4; OVCAR-8; RXF 393; SF-268; SK-MEL-5; SK-OV-3; UACC-62; MDA-MB-231; NCI/ADR-RES.
Holding throughout (assay): NCI tumour cell line growth inhibition, 48 h

Here are results for eleven molecules from ChEMBL document CHEMBL1201862, “PubChem BioAssay data set” (2004).

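Protocol summary: plate cells (96-well), add compound at 5 concentrations, incubate 48 h, interpolate endpoints linearly. GI50 is the concentration that inhibits growth by half.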 Activity calls are given as the source filed them. No stated cut-off is given here; in the data, active = GI50 up to about 1.1 µM and inactive = higher.

As to `Cc1cc(C)c(C2[C@H]3C(=O)N(c4ccc(Cc5ccc(N6C(=O)[C@@H]7ON(c8ccccc8)C(c8c(C)cc(C)cc8C)[C@@H]7C6=O)cc5)cc4)C(=O)[C@H]3ON2c2ccccc2)c(C)c1` (some centres undefined), the GI50 with 786-0 is > 100 µM (inactive); with A549, > 100 µM (inactive); in the assay on ACHN, > 100 µM (inactive); in the assay on CAKI-1 it was 57.9 µM (inactive); in the assay on HCC 2998, > 100 µM (inactive); in the assay with HCT-116, > 100 µM (inactive). The GI50 with HCT-15 was > 100 µM; in the assay on HL-60 it was 46.3 µM (inactive); in the assay on IGROV-1 it was > 100 µM (inactive); with K562, > 100 µM (inactive); with M14 it was > 100 µM (inactive); with OVCAR-4, > 100 µM (inactive). Moreover, the GI50 was > 100 µM (inactive) in the assay with OVCAR-8; 44.1 µM (inactive) with RXF 393; > 100 µM (inactive) in the assay with SF-268; > 100 µM (inactive) with SK-MEL-5; > 100 µM (inactive) in the assay on SK-OV-3; > 100 µM (inactive) in the assay on UACC-62.
Turning to `Nc1nc2c(ncn2Cc2ccccc2CO)c(=O)[nH]1`, the GI50 in the assay with 786-0, in the assay on A549, with ACHN, in the assay with CAKI-1, with HCC 2998 and with HCT-116 was > 100 µM (inactive) in each case. For the same molecule, the GI50 was > 100 µM in the assay on HCT-15; > 100 µM (inactive) with HL-60; > 100 µM (inactive) in the assay with IGROV-1; > 100 µM (inactive) with K562; > 100 µM (inactive) in the assay on M14; > 100 µM (inactive) with MDA-MB-231. Further, the GI50 in the assay with NCI/ADR-RES, in the assay with OVCAR-4, in the assay with OVCAR-8, with SF-268, in the assay with SK-MEL-5 and in the assay with SK-OV-3 was > 100 µM (inactive) in each case. In the assay with UACC-62, the GI50 is > 100 µM (inactive).
As for `NNC(=O)c1ccc(-n2nnc(C(=O)NN)c2C(=O)NN)cc1`, the GI50 in the assay with 786-0, with A549, in the assay on ACHN, with CAKI-1, in the assay on HCC 2998 and in the assay with HCT-116 was > 100 µM (inactive) throughout. The GI50 in the assay on HCT-15 is > 100 µM; in the assay with HL-60, > 100 µM (inactive); with K562, > 100 µM (inactive); with M14, > 100 µM (inactive); in the assay on MDA-MB-231 it was > 100 µM (inactive); with NCI/ADR-RES it was > 100 µM (inactive). The GI50 in the assay with OVCAR-4, in the assay with OVCAR-8 and in the assay on SK-MEL-5 was > 100 µM (inactive) each time.
For `CC(=O)CSc1c(-c2ccccc2)c(=O)n(-c2ccccc2)c(=S)n1-c1ccccc1`, the GI50 with 786-0 was > 100 µM (inactive); in the assay on A549, > 100 µM (inactive); in the assay on ACHN, > 100 µM (inactive); in the assay on CAKI-1 it was > 100 µM (inactive); in the assay on HCT-116, > 100 µM (inactive); with HCT-15, > 100 µM. The GI50 in the assay on HL-60, with IGROV-1, with K562, with M14, in the assay with NCI/ADR-RES and in the assay with OVCAR-4 was > 100 µM (inactive) throughout. Besides, the GI50 in the assay on OVCAR-8, in the assay on SF-268, with SK-MEL-5, in the assay with SK-OV-3 and in the assay on UACC-62 was > 100 µM (inactive) in each case.
Take `CCOC(=O)C1=CC(C)(C(=O)OCC)Nc2c(nc(SC)n(C)c2=O)N1` (centres undefined): the GI50 in the assay with 786-0, in the assay with A549, in the assay with ACHN, in the assay on CAKI-1, in the assay with HCC 2998 and with HCT-116 was > 10 µM (inactive) in each case. For the same molecule, the GI50 was > 10 µM with HCT-15; > 10 µM (inactive) in the assay with IGROV-1; > 10 µM (inactive) in the assay on K562; > 10 µM (inactive) in the assay on M14; > 10 µM (inactive) in the assay on MDA-MB-231; > 10 µM (inactive) in the assay with NCI/ADR-RES. Moreover, the GI50 in the assay with OVCAR-4, in the assay on OVCAR-8, with SF-268, with SK-MEL-5 and in the assay on SK-OV-3 was > 10 µM (inactive) each time.
With `CC(C)(C)c1cc(C(C)(C)C)c(P=C(Cl)Cl)c(C(C)(C)C)c1` (centres undefined), the GI50 in the assay with 786-0, with A549, in the assay with ACHN, in the assay on CAKI-1, in the assay on HCC 2998 and in the assay on HCT-116 was > 100 µM (inactive) throughout. Further, the GI50 was > 100 µM with HCT-15; > 100 µM (inactive) in the assay with HL-60; > 100 µM (inactive) with IGROV-1; 0.0478 µM (active) in the assay on K562; > 100 µM (inactive) with M14; > 100 µM (inactive) in the assay with MDA-MB-231. The GI50 with NCI/ADR-RES, with OVCAR-4, with OVCAR-8, with SF-268, with SK-MEL-5 and with SK-OV-3 was > 100 µM (inactive) each time. The GI50 in the assay on UACC-62 is > 100 µM (inactive).
`CCOC(=O)C1C(c2ccc(OC)cc2)c2c(nn(-c3ccccc3)c2O)CC1(C)O` (centres undefined): the GI50 is > 100 µM (inactive) with 786-0; 18.9 µM (inactive) in the assay with A549; 23 µM (inactive) in the assay on ACHN; > 100 µM (inactive) in the assay with CAKI-1; 26.4 µM (inactive) with HCC 2998; 17.9 µM (inactive) in the assay with HCT-116. Also, the GI50 with HCT-15 is 14.3 µM; in the assay with HL-60, 1.38 µM (inactive); with IGROV-1, > 100 µM (inactive); in the assay on M14, 11 µM (inactive); with MDA-MB-231, 59.2 µM (inactive); in the assay with NCI/ADR-RES, 42.5 µM (inactive). Moreover, the GI50 is 96.6 µM (inactive) with OVCAR-4; 98.2 µM (inactive) in the assay with OVCAR-8; > 100 µM (inactive) in the assay on SF-268; 2.81 µM (inactive) in the assay on SK-MEL-5; 1.54 µM (inactive) in the assay on UACC-62.
As for `CC(C)(C)C1=C(Br)C(C(C)(C)C)OP1(=O)O` (centres undefined), the GI50 with 786-0, in the assay on A549, in the assay with ACHN, in the assay with CAKI-1, in the assay on HCC 2998 and in the assay on HCT-116 was > 100 µM (inactive) in each case. Besides, the GI50 in the assay on HCT-15 was > 100 µM; in the assay with HL-60 it was > 100 µM (inactive); in the assay on IGROV-1, > 100 µM (inactive); with K562 it was > 100 µM (inactive); in the assay with M14 it was > 100 µM (inactive); with NCI/ADR-RES, > 100 µM (inactive). Besides, the GI50 in the assay on OVCAR-4, with OVCAR-8, in the assay with SF-268, in the assay with SK-MEL-5, with SK-OV-3 and with UACC-62 was > 100 µM (inactive) in each case.
For `CC(C)(c1ccccc1)c1ccc(OC#N)cc1`, the GI50 in the assay on 786-0 was > 58.1 µM (inactive); in the assay on A549, 73.5 µM (inactive); in the assay on ACHN, 68.4 µM (inactive); in the assay with CAKI-1, > 95.5 µM (inactive); with HCC 2998, > 77.6 µM (inactive); with HCT-116 it was 34.4 µM (inactive). Further, the GI50 in the assay on HCT-15 is 15.2 µM; in the assay with HL-60 it was 36.4 µM (inactive); in the assay with IGROV-1, > 100 µM (inactive); in the assay with K562 it was 37.8 µM (inactive); with M14, > 100 µM (inactive); with OVCAR-4, 71.4 µM (inactive). Also, the GI50 in the assay on OVCAR-8 is > 100 µM (inactive); in the assay with RXF 393, 46.1 µM (inactive); with SF-268 it was 42 µM (inactive); with SK-MEL-5 it was 48.8 µM (inactive); in the assay on SK-OV-3 it was 98.6 µM (inactive); in the assay on UACC-62, > 95.1 µM (inactive).
With `O=C1CCCN(c2ccccc2)N1`, the GI50 in the assay with 786-0, in the assay with A549, in the assay with ACHN, with CAKI-1, in the assay with HCC 2998 and in the assay with HCT-116 was > 100 µM (inactive) throughout. The GI50 was > 100 µM in the assay with HCT-15; > 100 µM (inactive) in the assay on HL-60; > 100 µM (inactive) in the assay with IGROV-1; > 100 µM (inactive) in the assay on K562; > 100 µM (inactive) in the assay on M14; > 100 µM (inactive) with OVCAR-4. Further, the GI50 in the assay on OVCAR-8, in the assay with RXF 393, in the assay on SF-268, with SK-MEL-5, in the assay on SK-OV-3 and with UACC-62 was > 100 µM (inactive) in each case.
For `CN1C(=O)C(=O)c2cc3c(c4c2c1cc1ccccc14)OCO3` [CEPHARADIONE A], the GI50 with 786-0 is 7.23 µM (inactive); with A549, 33.7 µM (inactive); in the assay on ACHN, 18.8 µM (inactive); in the assay with CAKI-1 it was 31.3 µM (inactive); in the assay on HCC 2998 it was 49.1 µM (inactive); with HCT-116, 15.6 µM (inactive). Besides, the GI50 is 36.1 µM with HCT-15; 38.5 µM (inactive) in the assay on HL-60; 37.6 µM (inactive) with IGROV-1; 27.2 µM (inactive) in the assay on K562; 26.7 µM (inactive) with M14; 58.6 µM (inactive) in the assay with OVCAR-4. In addition, the GI50 with OVCAR-8 is 24.1 µM (inactive); in the assay on RXF 393, 25.6 µM (inactive); with SF-268 it was 21.9 µM (inactive); in the assay with SK-MEL-5, 28.4 µM (inactive); with SK-OV-3 it was 50.4 µM (inactive); in the assay on UACC-62, 16.9 µM (inactive).
